In the Kinase Knowledgebase extract (Sharma et al. 2016):

target: PIK3CA (human) (UniProt P42336); experiment: Assessment of PIK3CA Kinase Activity
Sequence (P42336 whole entry, looked up): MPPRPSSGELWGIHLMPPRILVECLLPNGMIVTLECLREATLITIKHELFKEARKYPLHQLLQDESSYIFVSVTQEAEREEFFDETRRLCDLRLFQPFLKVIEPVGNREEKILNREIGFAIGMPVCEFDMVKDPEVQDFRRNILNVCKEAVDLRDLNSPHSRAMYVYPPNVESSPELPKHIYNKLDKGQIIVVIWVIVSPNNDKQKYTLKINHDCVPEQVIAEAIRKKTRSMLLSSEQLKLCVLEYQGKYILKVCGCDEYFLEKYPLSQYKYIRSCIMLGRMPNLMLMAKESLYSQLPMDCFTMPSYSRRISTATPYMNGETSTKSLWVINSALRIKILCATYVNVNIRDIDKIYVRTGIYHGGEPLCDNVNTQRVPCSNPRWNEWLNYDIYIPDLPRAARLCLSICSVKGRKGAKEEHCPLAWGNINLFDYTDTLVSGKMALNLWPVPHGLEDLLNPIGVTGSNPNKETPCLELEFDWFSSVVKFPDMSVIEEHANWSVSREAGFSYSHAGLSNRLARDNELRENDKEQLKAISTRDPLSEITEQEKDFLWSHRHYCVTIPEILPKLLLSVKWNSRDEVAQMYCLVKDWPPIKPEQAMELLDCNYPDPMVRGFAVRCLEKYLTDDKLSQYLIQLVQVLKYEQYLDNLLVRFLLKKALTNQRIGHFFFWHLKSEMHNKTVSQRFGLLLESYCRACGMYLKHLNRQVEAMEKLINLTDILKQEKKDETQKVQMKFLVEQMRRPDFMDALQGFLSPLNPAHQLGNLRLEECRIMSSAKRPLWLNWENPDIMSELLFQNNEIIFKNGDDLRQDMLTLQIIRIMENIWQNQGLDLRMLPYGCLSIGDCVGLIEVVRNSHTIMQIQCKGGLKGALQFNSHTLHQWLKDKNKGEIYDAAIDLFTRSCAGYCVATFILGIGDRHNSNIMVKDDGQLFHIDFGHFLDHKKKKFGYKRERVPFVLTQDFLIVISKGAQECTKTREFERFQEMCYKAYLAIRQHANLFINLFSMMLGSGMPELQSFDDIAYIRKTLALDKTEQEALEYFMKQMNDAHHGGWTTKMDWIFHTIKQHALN

| Compound | IC50 [µM] |
| --- | --- |
| O=S1(=O)CCN(c2ccc3c(n2)-c2sc(-c4ncnn4-c4ccc(F)cc4F)cc2CCO3)CC1 | < 1 |
| CC(C)(C(N)=O)n1cc(-c2ccc3c(c2)OCCc2sc(-c4ncnn4CC(F)(F)F)nc2-3)cn1 | < 1 |
| O=C(c1nc2c(s1)CCOc1cc(-c3cn[nH]c3)ccc1-2)N1CCN(C(=O)C(F)(F)F)CC1 | < 1 |
| CN(C)c1ccc(-c2ccc3c(n2)-c2sc(-c4ncnn4-c4ccc(F)cc4F)cc2CCO3)cn1 | < 1 |
| CC(=O)N(C)[C@@H]1CCN(C(=O)c2nc3c(s2)CCOc2cc(-c4cn[nH]c4)ccc2-3)C1 | < 1 |
| CC(C)n1ncnc1-c1nc2c(s1)CCOc1cc(C3CN(S(=O)(=O)C(C)C)C3)ccc1-2 | < 1 |
| OCCCCc1ccc2c(n1)-c1sc(-c3ncnn3-c3ccc(F)cc3F)cc1CCO2 | < 1 |
| CC(C)(O)Cn1cc(-c2ccc3c(c2)OCCc2sc(-c4nccn4CC(F)(F)F)nc2-3)cn1 | < 1 |
| CC(C)n1ncnc1-c1nc2c(s1)CCOc1cc(CN3CCC[C@H]3C(N)=O)ccc1-2 | < 1 |
| CN(C)CCNc1ccc(-c2ccc3c(n2)-c2sc(-c4ncnn4-c4ccc(F)cc4F)cc2CCO3)cn1 | < 1 |
| CC(C)n1ncc(CO)c1-c1cc2c(s1)-c1nc(Cl)ccc1OCC2 | < 1 |
| CC(C)n1ncnc1-c1nc2c(s1)CCOc1cc(C3CN(C(C)(C)CO)C3)ccc1-2 | < 1 |
| CC(C)n1ncnc1-c1nc2c(s1)CCOc1cc(C3CN(S(=O)(=O)CCO)C3)ccc1-2 | < 1 |
| Cc1nn(C(C)C)c(=O)n1-c1nc2c(s1)CCOc1cc(-c3cnn(CC(C)(C)O)c3)ccc1-2 | < 1 |
| Cc1nc(-c2nc3c(s2)CCOc2cc(-c4cn(CCO)cn4)ccc2-3)n(C(C)C)n1 | < 1 |
| Cc1ncccc1-c1ccc2c(c1)-c1nc(-c3ncnn3C(C)C)sc1CCO2 | < 1 |
| C[C@@H]1CN(C2CCN(C(=O)c3nc4c(s3)CCOc3cc(-c5cn[nH]c5)ccc3-4)CC2)C[C@@H](C)O1 | < 1 |
| O=C(c1nc2c(s1)CCOc1cc(-c3cn[nH]c3)ccc1-2)N1CCN(CCO)CC1 | < 1 |
| NCCn1cc(-c2ccc3c(c2)OCCc2sc(-c4ncnn4CC(F)(F)F)nc2-3)cn1 | < 1 |
| CC(C)n1ncnc1-c1nc2c(s1)CCOc1ccc(-c3ccc(N4CCCC4)nc3)cc1-2 | < 1 |
| C[C@H]1COCCN1C(=O)c1nc2c(s1)CCOc1cc(-c3cn[nH]c3)ccc1-2 | < 1 |
| CC(C)n1nc(N)nc1-c1nc2c(s1)CCOc1cc(F)ccc1-2 | < 1 |

| Compound | IC50 [µM] |
| --- | --- |
| Fc1ccc(-n2ncnc2-c2cc3c(s2)-c2nc(NCC4CCCC4)ccc2OCC3)c(F)c1 | < 1 |
| Nc1ccc2c(n1)-c1sc(-c3ncnn3-c3ccc(F)cc3F)cc1CCO2 | < 1 |
| CC(C)n1ncnc1-c1cc2c(s1)-c1ccc(-c3cccc(S(C)(=O)=O)c3)cc1OCC2 | < 1 |
| CC(C)n1nc(N)nc1-c1nc2c(s1)CCOc1ccc(F)cc1-2 | < 1 |
| CC(C)n1ncnc1-c1nc2c(s1)CCOc1ccc(C3CN(CC(C)(C)O)C3)cc1-2 | < 1 |
| CC(=O)Nc1ccc(-c2ccc3c(n2)-c2sc(-c4ncnn4-c4ccc(F)cc4F)cc2CCO3)cn1 | < 1 |
| O=C(c1nc2c(s1)CCOc1cc(-c3cn[nH]c3)ccc1-2)N1CCC[C@@H]1Cc1ccccn1 | < 1 |
| Fc1ccc(-n2ncnc2-c2cc3c(s2)-c2nc(N4CC5CC4CN5)ccc2OCC3)c(F)c1 (stereo unspecified) | < 1 |
| CC(C)N1CC[C@H](CN(C)C(=O)c2nc3c(s2)CCOc2cc(-c4cn[nH]c4)ccc2-3)C1 | < 1 |
| CC(C)n1ncnc1-c1nc2c(s1)CCOc1cc(C3(F)CCN(CC(=O)N(C)C)CC3)ccc1-2 | < 1 |
| CC1CCN(C(=O)c2nc3c(s2)CCOc2cc(-c4cn[nH]c4)ccc2-3)CC1 | < 1 |
| CC(O)c1ccc2c(c1)OCCc1sc(-c3ncnn3CC(F)(F)F)nc1-2 (stereo unspecified) | < 1 |
| COCCN1CC(c2ccc3c(c2)OCCc2sc(-c4nc(C)nn4C(C)C)nc2-3)C1 | < 1 |
| CC(C)n1ncnc1-c1nc2c(s1)CCOc1ccc(-c3ccn(C)c(=O)c3)cc1-2 | < 1 |
| COc1ccc(-c2ccc3c(n2)-c2sc(-c4ncnn4-c4ccc(F)cc4F)cc2CCO3)cn1 | < 1 |
| CC(C)n1ncnc1-c1nc2c(s1)CCOc1ccc(-c3cccnc3)cc1-2 | < 1 |
| CN1CCN(c2ccc(-c3ccc4c(n3)-c3sc(-c5ncnn5-c5ccc(F)cc5F)cc3CCO4)cn2)CC1 | < 1 |
| CC(C)C[C@@H](CO)NC(=O)c1nc2c(s1)CCOc1cc(-c3cn[nH]c3)ccc1-2 | < 1 |
| CCN(CC)C(=O)c1nc2c(s1)CCOc1cc(-c3cn[nH]c3)ccc1-2 | < 1 |
| CC(C)n1ncnc1-c1nc2c(s1)CCOc1ccc(-c3cnn(S(=O)(=O)c4ccccc4)c3)cc1-2 | < 1 |
| FC(F)(F)Cn1ncnc1-c1nc2c(s1)CCOc1ccc(-c3cnn(CCN4CCOCC4)c3)cc1-2 | < 1 |
| CCN(CC)CCn1cc(-c2ccc3c(c2)OCCc2sc(-c4ncnn4CC(F)(F)F)nc2-3)cn1 | < 1 |

| Compound | IC50 [µM] |
| --- | --- |
| CN(C)CCCc1ccc2c(n1)-c1sc(-c3ncnn3-c3ccc(F)cc3F)cc1CCO2 | < 1 |
| CC(=O)N1CCN(C(=O)c2nc3c(s2)CCOc2cc(-c4cn[nH]c4)ccc2-3)CC1 | < 1 |
| CC(C)n1ncnc1-c1nc2c(s1)CCOc1ccc(-c3cccn(CC(=O)N(C)C)c3=O)cc1-2 | < 1 |
| CC(C)n1ncnc1-c1nc2c(s1)CCOc1cc(-c3cccc(CC(N)=O)c3)ccc1-2 | < 1 |
| O=C(c1nc2c(s1)CCOc1cc(-c3cn[nH]c3)ccc1-2)N1CCC(C(=O)N2CCCC2)CC1 | < 1 |
| COCC1CCN(C(=O)c2nc3c(s2)CCOc2cc(-c4cn[nH]c4)ccc2-3)CC1 | < 1 |
| CCN(CC)[C@@H]1CCN(C(=O)c2nc3c(s2)CCOc2cc(-c4cn[nH]c4)ccc2-3)C1 | < 1 |
| CC(C)N(CCO)C(=O)c1nc2c(s1)CCOc1ccc(-c3ccc(N)nc3)cc1-2 | < 1 |
| CC(C)CN(C)C(=O)c1nc2c(s1)CCOc1cc(-c3cn[nH]c3)ccc1-2 | < 1 |
| COc1ccccc1C1CCN(C(=O)c2nc3c(s2)CCOc2cc(-c4cn[nH]c4)ccc2-3)CC1 | < 1 |
| CC(C)N1CC(c2ccc3c(c2)OCCc2sc(-c4ncnn4C(C)C)nc2-3)C1 | < 1 |
| O=C(c1nc2c(s1)CCOc1cc(-c3cn[nH]c3)ccc1-2)N1CC[C@@H](O)C1 | < 1 |
| CC(C)(O)Cn1cc(-c2ccc3c(c2)OCCc2sc(-c4nc(N)nn4-c4ccc(F)cc4F)nc2-3)cn1 | < 1 |
| CC(O)Cn1ncnc1-c1nc2c(s1)CCOc1cc(-c3cnn(CC(C)(C)O)c3)ccc1-2 (stereo unspecified) | < 1 |
| CS(=O)(=O)CCNc1ccc(-c2ccc3c(n2)-c2sc(-c4ncnn4-c4ccc(F)cc4F)cc2CCO3)cn1 | < 1 |
| CC(=O)N1CCCN(c2ccc3c(n2)-c2sc(-c4ncnn4-c4ccc(F)cc4F)cc2CCO3)CC1 | < 1 |
| CC(C)n1ncnc1-c1nc2c(s1)CCOc1ccc(C3CN(CCO)C3)cc1-2 | < 1 |
| CC(C)n1cnnc1-c1nc2c(s1)CCOc1cc(CNCCO)ccc1-2 | < 1 |
| CC(O)CCc1ccc2c(n1)-c1sc(-c3ncnn3-c3ccc(F)cc3F)cc1CCO2 (stereo unspecified) | < 1 |
| CC(=O)N1CC(Nc2ccc3c(n2)-c2sc(-c4ncnn4-c4ccc(F)cc4F)cc2CCO3)C1 | < 1 |
| CNC(=O)c1ccc2c(c1)OCCc1cc(C(=O)N(C)c3cc(C(=O)NC[C@H](C)O)ccc3Cl)sc1-2 | < 1 |
| CC(C)N1CCN(c2ccc3c(n2)-c2sc(-c4ncnn4-c4ccc(F)cc4F)cc2CCO3)CC1 | < 1 |
